Source: US20100286152A1, “N-PHENYL HYDRAZIDES AS MODULATORS OF THE GHRELIN RECEPTOR” (Glaxo Group Limited, priority 2007, published 2010)

How the values were obtained:
[1] = biological target: T1, Human GHS-R (ghrelin receptor) (Homo sapiens, UniProt Q92847); assay: GHSR Agonist BACMAM FLIPR Assay (Method X or Y); format: cell-based; details: U2OS cells, maximum asymptote relative to that of the hGhrelin concentration response curve
T1 construct: The full-length gene was transferred into pCDN for expression analysis; expressed in transfected cells; host or cells: U2OS cells transduced with human GHSR BacMam virus
T1 sequence (Q92847 whole entry): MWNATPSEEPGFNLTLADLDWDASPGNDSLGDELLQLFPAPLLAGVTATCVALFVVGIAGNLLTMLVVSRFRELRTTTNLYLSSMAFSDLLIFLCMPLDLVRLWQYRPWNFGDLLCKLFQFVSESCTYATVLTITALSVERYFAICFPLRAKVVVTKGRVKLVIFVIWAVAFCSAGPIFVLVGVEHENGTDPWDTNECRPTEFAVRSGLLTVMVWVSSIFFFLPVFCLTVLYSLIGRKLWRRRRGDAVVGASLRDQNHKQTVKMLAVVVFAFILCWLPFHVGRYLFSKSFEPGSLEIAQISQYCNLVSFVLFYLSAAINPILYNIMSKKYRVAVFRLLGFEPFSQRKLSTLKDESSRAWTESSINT
Procedure: (§1) 24 h prior to assay U2OS cells at confluence 100% were harvested and spun down. The supernatant was removed and the cells resuspended in media (DMEM+10% FBS+1% L-Glutamine). A cell count was performed using the Cedex instrumentation, and the concentration of cells was adjusted using media to give 200K cells per mL (10K cells/50 μL).
(§2) Human GHSR BACMAM virus was added to the cell suspension at an appropriate % volume (calculated for individual batches of BACMAM virus as viral titres vary). The transduced cell suspension was dispensed into FLIPR 384-well clear bottom plates, 50 μL per well. Cell plates were incubated at 37° C. overnight.
Master compound plates were prepared in 100% DMSO. 3 mM was the top concentration (giving 10 μM final concentration) and they were serially diluted 1 in 4. 1 μL from the master plate was transferred to a daughter plate, to which was added 50 μL of compound dilution (Tyrodes {Elga water+145 mM NaCl+5 mM KCl+20 mM HEPES+10 mM glucose+1 mM MgCl2+1.5 mM CaCl2}. For the agonist assay, the compound buffer also contained 0.1% BSA. This plate was used for the assay. Ghrelin was always prepared in buffer containing 0.1% BSA.
Master compound plates were prepared in 100% DMSO. 3 mM was the top concentration (giving 10 μM final concentration) and they were serially diluted 1 in 4. 1 μL from the master plate was transferred to a daughter plate, to which was added 50 μL of compound dilution (HBSS {Elga water+137 mM NaCl+5 mM KCl+0.41 mMa KH2PO4(anhyd)+20 mM HEPES+5 mM glucose+0.81 mM MgSO4(anhyd)+1.3 mM CaCl2+4.16 mM NaHCO3}. For the agonist assay, the compound buffer also contained 0.1% BSA. This plate was used for the assay. Ghrelin was always prepared in buffer containing 0.1% BSA.
Media was aspirated from cell plates using a cell washer (leaving 10 μL of media). Cells were immediately loaded with loading buffer (Tyrodes buffer-(Elga water+145 mM NaCl+5 mM KCl+20 mM HEPES+10 mM glucose+1 mM MgCl2)+1.5 mM CaCl2+0.714 mg/mL Probenecid (predissolved in 1 M NaOH)+0.25 mM brilliant black+2 μM Fluo 4 dye, and incubated at 37.5° C., 5% CO2 for 90 min. The plates were placed in a FLuorimetric Imaging Plate Reader (FLIPR, Molecular Devices) where 10 μL of compound, prepared according to method A above, was added to the cells and fluorescence measurements were taken. Maximum changes in fluorescence were plotted as a percentage of the maximum response elicited by 300 nM hGhrelin and curves fitted using a 4-parameter logistic equation to generate pEC50 values. Intrinsic activity of the compounds was calculated by using the maximum asymptote of it's concentration response curve relative to the maximum asymptote of the hGhrelin concentration response curve.
Media was aspirated from cell plates using a cell washer (leaving 10 μL of media). Cells were immediately loaded with loading buffer (HBSS (Elga water+137 mM NaCl+5 mM KCl+0.41 mM KH2PO4(anhyd)+20 mM HEPES+5 mM glucose+0.81 mM MgSO4(anhyd))+1.3 mM CaCl2+4.16 mM NaHCO3+0.714 mg/mL Probenecid (predissolved in 1 M NaOH)+0.25 mM brilliant black+2 μM Fluo 4 dye, and incubated at 37.5° C., 5% CO2 for 90 min. The plates were placed in a FLuorimetric Imaging Plate Reader (FLIPR, Molecular Devices) where 10 μL of compound, prepared according to method B above, was added to the cells and fluorescence measurements were taken. Maximum changes in fluorescence were plotted as a percentage of the maximum response elicited by 300 nM hGhrelin and curves fitted using a 4-parameter logistic equation to generate pEC50 values. Intrinsic activity of the compounds was calculated by using the maximum asymptote of it's concentration response curve relative to the maximum asymptote of the hGhrelin concentration response curve.

[2] = biological target: T1, Human GHS-R (ghrelin receptor); assay: GHSR Agonist BACMAM FLIPR Assay (Method Z); format: cell-based; details: U2OS cells, maximum asymptote relative to maximum response of hGhrelin at 100 nM
Procedure: as §1, §2
Master compound plates were prepared in 100% DMSO. 0.6 mM was the top concentration (giving 3 μM final concentration) and they were serially diluted 1 in 4. 1 μL from the master plate was transferred to a daughter plate, to which was added 50 μL of compound dilution (NaCl (145 mM) KCl (5 mM) CaCl2 (2 mM) MgCl2 (1 mM) HEPES (20 mM) D-(+)-Glucose (1 g/l), pluronic acid (0.05%), pH 7.3). This plate was used for the assay. Ghrelin was always prepared in compound dilution buffer containing 0.1% BSA.
Media was washed from cell plates, using a cell washer (leaving 20 μL of washing buffer (NaCl (145 mM)+KCl (5 mM)+CaCl2 (2 mM)+MgCl2 (1 mM)+HEPES (20 mM)+D-(+)-Glucose (1 g/l)+Probenecid (2.5 mM), pH 7.3). Cells were immediately loaded with loading buffer (washing buffer+pluronic acid (0.02%)+Fluo 4 dye (2 μM), and incubated at 37° C., for 60 min. After a second washing step (same as for the pre-loading, but leaving 30 μL of washing buffer), the plates were placed in a FLuorimetric Imaging Plate Reader (FLIPR, Molecular Devices) where 10 μL of compound, prepared according to method C above, was added to the cells and fluorescence measurements were taken. […] Percentage activation of the compounds was calculated by using the maximum asymptote of it's concentration response curve relative to the maximum response of the hGhrelin at 100 nM concentration.

Row | Structure (SMILES) | intrinsic activity (IA) [1] | percentage activation [2] [%]
1 | O=C(NNc1cc(C(F)(F)F)cc(C(F)(F)F)c1)C(c1cccnc1)N1CCN2CCC[C@H]2C1 (single isomer, unassigned) [Compound 126] | 0.4 | 
2 | CN1CCN(C(C)(C(=O)NNc2cc(C(F)(F)F)cc(C(F)(F)F)c2)c2ccccn2)CC1 (single isomer, unassigned) [Compound 130, N′-[3,5-bis(trifluoromethyl)phenyl]-2-(4-methyl-1-piperazinyl)-2-(2-pyridinyl)propanohydrazide] | 0.4 | 
3 | Cc1ccc(C(C(=O)NNc2cc(C(F)(F)F)cc(C(F)(F)F)c2)N2CCN3CCC[C@@H]3C2)c(C)n1 (single isomer, unassigned; diastereoisomer 1) [Compound 80] | 0.4 | 
4 | Cc1ccc(C(C(=O)NNc2cc(C(F)(F)F)cc(C(F)(F)F)c2)N2CCN3CCC[C@@H]3C2)cn1 (single isomer, unassigned; diastereoisomer 1) [Compound 92] |  | > 40
5 | Cc1ncccc1C(C(=O)NNc1cc(C(F)(F)F)cc(C(F)(F)F)c1)N1CCN2CCC[C@@H]2C1 (single isomer, unassigned; diastereoisomer 1) [Compound 94] |  | > 40
6 | O=C(NNc1cc(C(F)(F)F)cc(C(F)(F)F)c1)C(c1ccc2c(c1)OCCO2)N1CCN2CCC[C@@H]2C1 (single isomer, unassigned; diastereoisomer 1) [Compound 96] |  | > 40
7 | CN1CCC(C(C(=O)NNc2cc(Cl)cc(Cl)c2)c2cccc3ccccc23)CC1 (single isomer, unassigned; enantiomer 1) [Compound 73, N′-(3,5-dichlorophenyl)-2-(1-methyl-4-piperidinyl)-2-(1-naphthalenyl)-acetohydrazide-enantiomer 1] | 0.4 | 

Results, then the molecule that gave them:

Row | intrinsic activity (IA) [1] | percentage activation [2] [%] | Structure (SMILES)
8 | 0.4 |  | CN1CCN(C(C(=O)NNc2cc(C(F)(F)F)cc(C(F)(F)F)c2)c2cccc(OC(F)(F)F)c2)CC1 (racemic) [Compound 37, (±)-N′-[3,5-bis(trifluoromethyl)phenyl]-2-(4-methyl-1-piperazinyl)-2-{3-[(trifluoromethyl)oxy]phenyl}acetohydrazide]
9 | 0.4 |  | CN1CCN(C(C(=O)NNc2cc(C(F)(F)F)cc(C(F)(F)F)c2)c2cccc(Cl)c2)CC1.O=CO (racemic) [Compound 45, (±)-formic acid-N′-[3,5-bis(trifluoromethyl)phenyl]-2-(3-chlorophenyl)-2-(4-methyl-1-piperazinyl)acetohydrazide]
10 | 0.4 |  | CN1CCN(C(C(=O)NNc2cc(C(F)(F)F)cc(C(F)(F)F)c2)c2cccc3c2OC(F)(F)O3)CC1 (racemic) [Compound 46, (±)-N′-[3,5-bis(trifluoromethyl)phenyl]-2-(2,2-difluoro-1,3-benzodioxol-4-yl)-2-(4-methyl-1-piperazinyl)acetohydrazide]
11 | 0.4 |  | O=C(NNc1cc(C(F)(F)F)cc(C(F)(F)F)c1)C(c1ccccc1Cl)N1CCN2CCC[C@H]2C1 (single isomer, unassigned; diastereoisomer 2) [Compound 83]
12 | 0.4 |  | O=C(NNc1cc(C(F)(F)F)cc(C(F)(F)F)c1)C(c1ccccc1Cl)N1CCN2CCC[C@@H]2C1 (single isomer, unassigned; diastereoisomer 2) [Compound 85]
13 | 0.4 |  | CN1CCN(C(C(=O)NNc2cc(C(F)(F)F)cc(C(F)(F)F)c2)c2ccccc2Cl)CC1 (single isomer, unassigned; enantiomer 1) [Compound 9, N′-[3,5-bis(trifluoromethyl)phenyl]-2-(2-chlorophenyl)-2-(4-methyl-1-piperazinyl)acetohydrazide-enantiomer 1]
14 | 0.4 |  | CN1CCN(C(C(=O)NNc2cc(C(F)(F)F)cc(C(F)(F)F)c2)c2ccc3c(c2)CCO3)CC1 (single isomer, unassigned; enantiomer 1) [Compound 20, N′-[3,5-bis(trifluoromethyl)phenyl]-2-(2,3-dihydro-1-benzofuran-5-yl)-2-(4-methyl-1-piperazinyl)acetohydrazide-enantiomer 1]
15 | 0.4 |  | Cc1cccnc1C(C(=O)NNc1cc(C(F)(F)F)cc(C(F)(F)F)c1)N1CCN(C)CC1 (single isomer, unassigned; enantiomer 1) [Compound 55, N′-[3,5-bis(trifluoromethyl)phenyl]-2-(4-methyl-1-piperazinyl)-2-(3-methyl-2-pyridinyl)acetohydrazide-enantiomer 1]
16 | 0.4 |  | CN1CCN(C(C(=O)NNc2cc(C(F)(F)F)cc(C(F)(F)F)c2)c2cncnc2)CC1 (single isomer, unassigned; enantiomer 1) [Compound 78, N′-[3,5-bis(trifluoromethyl)phenyl]-2-(4-methyl-1-piperazinyl)-2-(5-pyrimidinyl)acetohydrazide-enantiomer 1]
17 | 0.4 |  | Cc1cccnc1C(C(=O)NNc1cc(C(F)(F)F)cc(C(F)(F)F)c1)N1CCN(C)CC1 (single isomer, unassigned; enantiomer 2) [Compound 56, N′-[3,5-bis(trifluoromethyl)phenyl]-2-(4-methyl-1-piperazinyl)-2-(3-methyl-2-pyridinyl)acetohydrazide-enantiomer 2]
